These results are taken from ChEMBL document CHEMBL4373709 (J Med Chem, 2019).

The target in test [1] is T1, Neurotensin receptor type 1 (Homo sapiens, UniProt P30989). The test can be described thus: Allosteric modulation of human GFP-fused PK-tagged Gq-coupled NTR1 expressed in CHOK1 cells assessed as induction of NT (8 to 13) peptide-mediated beta-arrestin recruitment measured after 90 mins by pathhunter assay. Format: cell-based. In general terms: Activated receptors often draw arrestin, which recruitment assays turn into a signal.

Test [2] has as its target T1, Neurotensin receptor type 1. The test can be described thus: Allosteric modulation of human GFP-fused PK-tagged Gq-coupled NTR1 expressed in CHOK1 cells assessed as induction of NT (8 to 13) peptide-mediated beta-arrestin recruitment measured after 90 mins by pathhunter assay relative to NT (8 to 13) peptide. Format: cell-based.
In test [3] the target is Neurotensin receptor type 2 (Homo sapiens) (UniProt O95665). Kind of test: Allosteric modulation of NTR2 (unknown origin) assessed as induction of NT (8 to 13) peptide-mediated beta-arrestin recruitment at >80 uM by pathhunter assay.
The target of test [4] is Kappa-type opioid receptor (Homo sapiens) (UniProt P41145). Kind of test: Allosteric modulation of human PK-tagged Gi/Go-coupled KOR expressed in CHOK1 cells assessed as induction of dynorphin A-mediated beta-arrestin recruitment by pathhunter assay. Format: cell-based.
The target in test [5] is G-protein coupled receptor 55 (Homo sapiens) (UniProt Q9Y2T6). The test can be described thus: Allosteric modulation of human PK-tagged Gq-coupled GPR55 expressed in CHOK1 cells assessed as induction of L-alpha-Lysophosphatidylinositol-mediated beta-arrestin recruitment by pathhunter assay. Format: functional, cell-based.
Test [6] concerns the target G-protein coupled receptor 35 (Homo sapiens) (UniProt Q9HC97). The test can be described thus: Allosteric modulation of human PK-tagged Gi/Go-coupled GPR35 expressed in CHOK1 cells assessed as induction of zaprinast-mediated beta-arrestin recruitment by pathhunter assay. Format: cell-based.
Test [7] concerns the target T1, Neurotensin receptor type 1. Kind of test: Agonist activity at NTR1 (unknown origin) expressed in CHO cells assessed as effect on calcium flux by Fluo-4 NW calcium dye based fluorescence assay. Format: functional, cell-based. A general note: A change in cytosolic calcium serves as a functional read-out for many receptors and channels.

SMILES strings stand for the structures. The source made the active and inactive calls. No cut-off for these calls is given here.

Neurotensin receptor type 2 (Homo sapiens), sequence (O95665 whole entry): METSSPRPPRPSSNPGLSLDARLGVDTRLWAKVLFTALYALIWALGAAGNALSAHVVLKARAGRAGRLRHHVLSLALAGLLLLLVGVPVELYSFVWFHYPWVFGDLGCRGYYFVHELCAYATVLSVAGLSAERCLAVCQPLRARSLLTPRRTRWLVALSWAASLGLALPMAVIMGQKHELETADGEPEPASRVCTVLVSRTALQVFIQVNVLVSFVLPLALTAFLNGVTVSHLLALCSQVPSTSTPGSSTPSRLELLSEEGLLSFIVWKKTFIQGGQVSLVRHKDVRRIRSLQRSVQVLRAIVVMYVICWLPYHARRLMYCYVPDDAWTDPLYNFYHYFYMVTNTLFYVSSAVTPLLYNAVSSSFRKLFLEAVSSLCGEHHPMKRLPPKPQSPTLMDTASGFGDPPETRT
T1 sequence (P30989 whole entry, the tested form may be a part): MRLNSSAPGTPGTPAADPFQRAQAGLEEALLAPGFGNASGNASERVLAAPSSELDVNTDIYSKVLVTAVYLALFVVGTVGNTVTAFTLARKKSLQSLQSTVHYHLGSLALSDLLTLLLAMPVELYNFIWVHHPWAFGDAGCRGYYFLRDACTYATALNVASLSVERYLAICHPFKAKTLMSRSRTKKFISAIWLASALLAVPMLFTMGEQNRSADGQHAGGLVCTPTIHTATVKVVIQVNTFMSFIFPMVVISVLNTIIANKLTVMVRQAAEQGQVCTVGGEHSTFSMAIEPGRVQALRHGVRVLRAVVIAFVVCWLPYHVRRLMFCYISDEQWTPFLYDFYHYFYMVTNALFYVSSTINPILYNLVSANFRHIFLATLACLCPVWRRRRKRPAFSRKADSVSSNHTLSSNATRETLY
G-protein coupled receptor 55 (Homo sapiens), sequence (Q9Y2T6 whole entry): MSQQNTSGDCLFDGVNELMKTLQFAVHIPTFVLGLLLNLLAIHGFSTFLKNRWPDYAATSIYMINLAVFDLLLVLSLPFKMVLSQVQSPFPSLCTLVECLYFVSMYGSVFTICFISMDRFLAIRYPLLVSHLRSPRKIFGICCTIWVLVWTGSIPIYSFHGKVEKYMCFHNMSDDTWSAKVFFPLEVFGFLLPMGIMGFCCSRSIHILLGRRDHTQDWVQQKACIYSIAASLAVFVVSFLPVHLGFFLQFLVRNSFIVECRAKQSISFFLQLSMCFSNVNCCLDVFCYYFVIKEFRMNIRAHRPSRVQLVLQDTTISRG
G-protein coupled receptor 35 (Homo sapiens), sequence (Q9HC97 whole entry): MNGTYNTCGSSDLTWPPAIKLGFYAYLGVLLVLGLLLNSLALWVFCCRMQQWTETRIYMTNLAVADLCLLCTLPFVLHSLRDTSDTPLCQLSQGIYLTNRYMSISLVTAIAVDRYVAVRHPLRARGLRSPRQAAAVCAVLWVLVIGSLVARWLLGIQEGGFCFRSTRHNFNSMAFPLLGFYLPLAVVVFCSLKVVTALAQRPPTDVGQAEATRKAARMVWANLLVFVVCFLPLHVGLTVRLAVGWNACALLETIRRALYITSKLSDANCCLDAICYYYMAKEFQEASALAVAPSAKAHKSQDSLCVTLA
Kappa-type opioid receptor (Homo sapiens), sequence (P41145 whole entry): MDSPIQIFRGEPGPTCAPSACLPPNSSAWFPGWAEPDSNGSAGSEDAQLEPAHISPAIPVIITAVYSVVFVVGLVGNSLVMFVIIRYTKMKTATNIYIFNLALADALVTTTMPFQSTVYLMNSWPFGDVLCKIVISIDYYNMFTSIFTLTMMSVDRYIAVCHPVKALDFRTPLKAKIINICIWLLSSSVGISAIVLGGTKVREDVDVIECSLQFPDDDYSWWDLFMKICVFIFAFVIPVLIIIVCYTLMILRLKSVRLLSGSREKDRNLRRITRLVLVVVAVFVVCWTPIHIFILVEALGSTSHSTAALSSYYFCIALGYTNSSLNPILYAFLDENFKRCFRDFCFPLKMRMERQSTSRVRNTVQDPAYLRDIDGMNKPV

In general, EC50 refers to the concentration that produces a half-maximal response. A word on the Emax: it is the maximal effect, on the per cent scale that the assay sets. On to `CCCN(C)c1ccc2c(N3CCC(c4ccccc4OC)CC3)nc(C3CC3)nc2c1`, for which, in test [1], the EC50 is 10000 nM. In addition, in test [2], the Emax is 86%. Moreover, the outcome in test [3] was inactive.

As to `COc1ccccc1C1CCN(c2nc(C3(C(F)(F)F)CC3)nc3ccc(N(C)CCO)cc23)CC1`, the EC50 in test [1] was determined as 340 nM. Further, the Emax in test [2] is 94%. For the same compound, the result in test [3] was inactive.

Consider `COc1ccccc1C1CCN(c2nc(C3CC3)nc3ccc(N(C)CCO)cc23)CC1`, for which, in test [1], the EC50 is 478 nM. Also, the Emax in test [2] was determined as 92%. For the same compound, the result in test [3] was inactive.

For the compound `COc1ccccc1C1CCN(c2nc(C3(C)CCC3)nc3ccc(N(C)CCO)cc23)CC1`, the concentration for a half-maximal effect (EC50) in test [1] was determined as 1480 nM. Besides, in test [2], the Emax stood at 75%. Besides, in test [3], the outcome was inactive.

For `COc1ccccc1N1CCN(c2nc(C3CC3)nc3ccc(N(C)C)cc23)CC1`, the 50% effective concentration (EC50) in test [1] was 710 nM.

For `COc1ccccc1C1CCN(c2nc(C3CC3)nc3ccc(N4CC[C@@H](OC)C4)cc23)CC1`, the EC50 in test [1] came out at 640 nM. Further, the Emax in test [2] came to 93%. Moreover, the outcome in test [3] was inactive.

As to `COc1ccccc1C1CCN(c2nc(C3CC3)nc3c(Cl)cc(N(C)CCO)cc23)CC1`, in test [1], the EC50 amounted to 220 nM. Also, the Emax in test [2] was 95%. Also, in test [3], the outcome was inactive.

Take `COc1ccccc1C1CCN(c2nc(C3CC3)nc3ccc(N4CC[C@@H](O)C4)cc23)CC1`: the EC50 in test [1] was determined as 440 nM. In addition, the Emax in test [2] is 79%. For the same compound, in test [3], the outcome was inactive.

Regarding `CCN(C)c1cccc2nc(C3CC3)nc(N3CCC(c4ccccc4OC)CC3)c12`, the EC50 in test [1] worked out at 6710 nM. Moreover, the Emax in test [2] amounted to 60%. In addition, the outcome in test [3] was inactive.

For the compound `COc1ccccc1C1CCN(c2nc(C3CCCC3)nc3ccc(N(C)CCO)cc23)CC1`, in test [1], the EC50 came to 3880 nM. The Emax in test [2] was determined as 78%. Also, in test [3], the outcome was inactive.

With `COc1ccccc1C1CCN(c2nc(C3CC3)nc3ccc(N(C)CCN4CCOCC4)cc23)CC1`, in test [1], the EC50 is 810 nM. In test [2], the Emax turned out to be 92%. The outcome in test [3] was inactive.

Consider `CCCN(C)c1ccc2nc(C3CC3)nc(N3CCC(c4ccccc4OC)CC3)c2c1`, for which the EC50 in test [1] worked out at 732 nM. Also, in test [2], the Emax is 68%. For the same compound, the outcome in test [3] was inactive.

For `COc1ccccc1C1CCN(c2nc(C3CC3)nc3ccc(N(C)CCO)c(C)c23)CC1`, the half-maximal effective concentration (EC50) in test [1] amounted to 1260 nM. Further, the Emax in test [2] stood at 93%. Besides, in test [3], the outcome was inactive.

Regarding `COc1cc2nc(C3CC3)nc(N3CCC(c4ccccc4OC)CC3)c2cc1OC`, the EC50 in test [1] worked out at 1040 nM. Moreover, in test [2], the Emax was 89%. Also, in test [3], the result was inactive.

As to `COc1ccccc1C1CCN(c2nc(C3CC3)nc3ccc(N4CCC(O)CC4)cc23)CC1`, the EC50 in test [1] worked out at 6720 nM. Moreover, in test [2], the Emax is 82%. In addition, in test [3], the outcome was inactive.

As for `COc1ccccc1C1CCN(c2nc(C3CC3)nc3ccc(N4CCC(OC)CC4)cc23)CC1`, in test [1], the concentration giving a half-maximal response (EC50) came to 2780 nM. In addition, in test [2], the Emax was 79%. Moreover, the result in test [3] was inactive.

`COCCN(C)c1ccc2nc(C3(F)CC3)nc(N3CCC(c4ccccc4OC)CC3)c2c1`: the EC50 in test [1] worked out at 1060 nM. Also, the Emax in test [2] worked out at 86%. For the same compound, the result in test [3] was inactive.

For `COc1ccccc1C1CCN(c2nc(C3(C)CC3)nc3ccc(N(C)CCO)cc23)CC1`, the Emax in test [2] amounted to 90%. For the same compound, in test [3], the result was inactive.

In the case of `COc1ccccc1C1CCN(c2nc(C3CC3)nc3c(F)cc(N(C)CCO)cc23)CC1`, the EC50 in test [1] was determined as 160 nM. Moreover, the Emax in test [2] was 100%. Moreover, the outcome in test [3] was inactive.

`COc1cc2nc(C3CC3)nc(C3CCN(c4ccccc4OC)CC3)c2cc1OC`: the EC50 in test [1] was greater than 20000 nM. Besides, in test [3], the outcome was inactive.

As for `COc1ccccc1C1CCN(c2nc(C3CC3)nc3cc(Cl)c(N(C)CCO)cc23)CC1`, in test [1], the EC50 came to 600 nM. The Emax in test [2] came out at 98%. Besides, the outcome in test [3] was inactive.

In the case of `COCCN(C)c1ccc2nc(C3(C)CC3)nc(N3CCC(c4ccccc4OC)CC3)c2c1`, in test [1], the EC50 came out at 2230 nM. The Emax in test [2] stood at 60%. Moreover, in test [3], the outcome was inactive.

Turning to `CCCN(C)c1cc2c(N3CCC(c4ccccc4OC)CC3)nc(C3CC3)nc2cc1C`, in test [1], the EC50 turned out to be 990 nM. In addition, the Emax in test [2] came to 86%. Further, the outcome in test [3] was inactive.

As to `COCCN(C)c1ccc2nc(C3CC3)nc(N3CCC(c4ccccc4OC)CC3)c2c1`, the EC50 in test [1] was found to be 1120 nM. Also, the Emax in test [2] was determined as 79%. The outcome in test [3] was inactive.

In the case of `COc1cc2nc(C3CC3)nc(N3CCN(c4ccccc4OC)CC3)c2cc1OC`, the EC50 in test [1] was 2870 nM. The result in test [4], in test [5], in test [3], in test [6] and in test [7] was inactive.

Regarding `COc1ccccc1C1CCN(c2nc(C3CC3)nc3ccc(N4CC[C@H](OC)C4)cc23)CC1`, in test [1], the EC50 was found to be 810 nM. Further, the Emax in test [2] worked out at 82%. For the same compound, the result in test [3] was inactive.

Turning to `CCN(C)c1ccc2nc(C3CC3)nc(N3CCC(c4ccccc4OC)CC3)c2c1`, the EC50 in test [1] amounted to 560 nM. Moreover, the Emax in test [2] stood at 80%. Moreover, the outcome in test [3] was inactive.

On to `COc1ccccc1C1CCN(c2nc(C3(C)CC3)nc3ccc(N(C)CCN4CCOCC4)cc23)CC1`, for which the EC50 in test [1] came out at 3360 nM. In test [2], the Emax worked out at 71%. In test [3], the result was inactive.

Turning to `COc1ccccc1C1CCN(c2nc(C3CC3)nc3c(C)cc(N(C)CCO)cc23)CC1`, the EC50 in test [1] was found to be 160 nM. In test [2], the Emax was 87%. Besides, the outcome in test [3] was inactive.

As for `COc1ccccc1C1CCN(c2nc(C3CC3)nc3ccc(N(C)C)cc23)CC1`, the EC50 in test [1] is 888 nM. The maximal effect (Emax) in test [2] turned out to be 89%. Further, the result in test [3] was inactive.

As to `COc1ccccc1C1CCN(c2nc(C3(F)CCC3)nc3ccc(N(C)CCO)cc23)CC1`, the EC50 in test [1] is 270 nM. For the same compound, the Emax in test [2] was found to be 96%. For the same compound, in test [3], the result was inactive.

For `COc1ccccc1C1CCN(c2nc(C3(F)CC3)nc3ccc(N(C)CCN4CCOCC4)cc23)CC1`, the half-maximal effective concentration (EC50) in test [1] came out at 1720 nM. Further, the Emax in test [2] came out at 97%. For the same compound, the result in test [3] was inactive.

Regarding `CCCN(C)c1ccc2nc(C3(F)CC3)nc(N3CCC(c4ccccc4OC)CC3)c2c1`, in test [1], the EC50 worked out at 1450 nM. Further, the Emax in test [2] was 80%. For the same compound, the result in test [3] was inactive.

Turning to `COc1ccccc1C1CCN(c2nc(C3CC3)nc3ccc(N(C)CCO)c(F)c23)CC1`, the EC50 in test [1] was determined as 590 nM. Besides, the Emax in test [2] turned out to be 95%. The result in test [3] was inactive.

Regarding `COc1ccccc1C1CCN(c2nc(C3CC3)nc3ccc(N4CC[C@H](O)C4)cc23)CC1`, in test [1], the EC50 was 1010 nM. For the same compound, the Emax in test [2] came out at 78%. Moreover, the result in test [3] was inactive.

Consider `COc1ccccc1C1CCN(c2nc(C3(F)CC3)nc3ccc(N(C)C)cc23)CC1`, for which the EC50 in test [1] amounted to 920 nM. For the same compound, in test [2], the Emax was 84%. Besides, the result in test [3] was inactive.

On to `COc1ccccc1C1CCN(c2nc(C3(C(F)(F)F)CC3)nc3ccc(N(C)CCN4CCOCC4)cc23)CC1`, for which the EC50 in test [1] amounted to 3810 nM. Moreover, in test [2], the Emax came out at 78%. The outcome in test [3] was inactive.

Regarding `COc1ccccc1C1CCN(c2nc(-c3ccccc3)nc3ccc(N(C)CCO)cc23)CC1`, the EC50 in test [1] was found to be 4230 nM. In addition, the Emax in test [2] was 70%. Further, in test [3], the result was inactive.

Consider `COc1ccccc1C1CCN(c2nc(C3CCC3)nc3ccc(N(C)CCO)cc23)CC1`, for which, in test [1], the EC50 is 1050 nM. In test [2], the Emax is 80%. Besides, the outcome in test [3] was inactive.

Take `CCCN(C)c1cc2c(N3CCC(c4ccccc4OC)CC3)nc(C3CC3)nc2cc1F`: in test [1], the EC50 was 3010 nM. Also, the Emax in test [2] was found to be 68%. Further, the outcome in test [3] was inactive.

Turning to `COc1ccccc1C1CCN(c2nc(C3CC3)nc3ccc(N(C)CCO)c(Cl)c23)CC1`, in test [1], the EC50 came to 500 nM. Besides, the Emax in test [2] stood at 91%. Besides, the result in test [3] was inactive.

In the case of `COc1ccccc1C1CCN(c2nc(C3CC3)nc3cc(C)c(N(C)CCO)cc23)CC1`, in test [1], the EC50 turned out to be 560 nM. Besides, in test [2], the Emax came out at 88%. In test [3], the outcome was inactive.
